# Results from patent US20250114451A1, “REDUCING POLYSORBATE DEGRADATION IN PROTEIN FO[…] LOW AMOUNTS OF CITRIC ACID” (LONZA LTD, priority 2022, published 2025).
# Conditions: 0.1 mM, 1 mM, 10 mM, 20 mM citric acid vs 0 mM; Rituximab Protein A eluate 1.4 mg/mL, 0.02% (w/v) PS80, pH 6; 2 weeks and 4 weeks at 40° C.
# Experimental: A formulation buffer containing 25 mM L-His/L-His HCl at pH 6.0, 600 mM sucrose and 0.05% (w/v) PS80 was prepared. The solution was filtered over a 0.22 μm PVDF Durapore® sterile filter.
# A second solution of 40 mM citric acid at pH 6.0 was prepared and filtered over a 0.22 μm PVDF Durapore® sterile filter. In addition to the 40 mM citric acid stock solution, dilutions of the 40 mM citric acid solution at a target concentration of 20 mM, 2 mM and 0.2 mM using water were prepared.
# Five protein formulation samples were prepared each by spiking 320 μL of the downstream purification sample (Rituximab Protein A eluate, 18 g/L) into 1680 μL of the above prepared formulation buffer in five different particle-free Nalgene bottles. […]
# Analyzing polysorbate degradation in protein formulation samples 1.2 mL of each of the protein formulation sample were aliquoted into particle-free Nalgene tubes and placed into a 40° C. stability chamber. The samples were analysed after 2 week and 4 weeks of incubation using HPLC-FMA against a standard curve of intact PS80 in water.
# The HPLC-FMA measurement was performed using a high-performance liquid chromatography (HPLC) system (Waters Alliance e2695) equipped with an isocratic pump, fluorescence detector (Waters 2475 FLR Detector), auto sampler and knitted reaction coil 1 mL (Supelco #57410-U). […] Fluorescence was measured at λex=350 nm and λem=420 nm. […]
smiles,measurement,value
"O=C(O)CC(O)(CC(=O)O)C(=O)O [citric acid, Citric acid monohydrate]",PS80 concentration / polysorbate degradation in protein formulation,effective in reducing polysorbate degradation
